Laboratory results: patent USRE43000E1, “Artificial riboswitch for controlling pre-mRNA splicing” (City of Hope, priority 2005, dated 2011)

Legend:
[1] = tested on: pAdML-Theo29AG-EGFP reporter in HEK293 cells; test: GFP splicing reporter in HEK293 cells (fluorescence microscopy, RT-PCR); format: cell-based; set-up: GFP expression of cells transfected with pAdML-Theo29AG-EGFP: dose or concentration left out as unconfirmed
Description: Controlling gene expression in living cells through theophylline-RNA interaction. […] To determine if such an approach could also regulate gene expression in living cells, a splicing reporter was constructed in which the cDNA of AdML-Theo29AG pre-mRNA was inserted into the 5′ UTR of green fluorescence protein (GFP) cDNA. It was contemplated that theophylline mediated inhibition of AdML-Theo29AG splicing will prevent the export of GFP mRNA which will be mirrored by the lack of GFP expression. The reporter plasmid was constructed by standard molecular cloning approach. In brief, a PCR amplified DNA fragment containing the entire AdML-Theo29AG sequence was cloned into the EcoRI/Sal I digested expression vector (pEGFP-N1, Invitrogen). The resulting reporter plasmid, pAdML-Theo29AG-EGFP, contains the cDNA of AdML-Theo29AG pre-mRNA fused 5′ to the GFP coding sequence.
To examine theophylline-mediated regulation of AdML-Theo29AG splicing, HEK293 cells were transfected with pAdML-Theo29AG-EGFP reporter using polyfectin following manufacturer's instructions (Qiagen). Cells were grown and maintained in a humidified atmosphere at 37° C. under 5% CO2 in Dulbecco's Modified Eagle Medium (Cellgro) supplemented with 10% fetal bovine serum and antibiotics (100 μg/ml streptomycin and 100 U/ml penicillin). For transfection, cells (3×10^4, per well) were seeded in a 24 well plate and incubated for 24 h (50-80% confluency) at which time pAdML-Theo29AG-EGFP or pEGFP-N1 was introduced. After 10 hours of incubation, cells were treated with buffer or theophylline ([…]) and incubation was continued up to 48 hours. The GFP expression was visualized with a fluorescence microscope and cells were photographed with color CCD camera (Olympus).
An RT-PCR assay was performed to confirm that theophylline-mediated reduction of GFP expression is due to the inhibition of AdML-Theo29AG-EGFP splicing and not the result of mRNA degradation. Total RNA was isolated (from 3×10^4 cells) using trizol reagent. In a total volume of 20 μl, 5 μg of total RNA was reverse transcribed (RT) using vector specific reverse primer (GFPR, 5′-[…]-3′) according to manufacturer's instructions (Invitrogen Kit). Next, an aliquot (2 μl) of RT product was subjected to PCR amplification in a 50 μl reaction using 2.5 units of Taq polymerase, vector specific forward (GFPF, 5′-[…]-3′) and reverse primer (GFPR, 5′-[…]-3′). The amplified product was analyzed on a 2% agarose gel. […] Unlike the untreated control, which generated ˜250 bp fragment, theophylline treated cell yielded a PCR product corresponding to the size of unspliced RNA (˜350-bp).

[2] = tested on: BclxSHTheo510 and BclxSHTheo513 pre-mRNAs; test: In vitro alternative splicing of Bcl-x minigene derivatives; format: biochemical; conditions: 10- and 13-nucleotide stem substrates
Description: (§1) Nuclear extracts were prepared from HeLa cells (obtained from National Cell Culture), essentially as described by Dignam et al., (Dignam et al., 1983). To ensure that theophylline binds to its RNA target, a solution (5 μl) consisting of ^32P-labeled pre-mRNA (5-10 fmol, ˜10,000 cpm per reaction), indicated concentration of theophylline, 0.5 μl BC300 (20 mM HEPES, pH 8.0, 20% glycerol, 300 mM KCl, 0.2 mM EDTA) and 0.25 μl 160 mM MgCl2 were heated to 65° C. for 5 minutes, followed by 20 minutes incubation at room temperature. Next, 0.5 mM ATP, 20 mM creatine phosphate, 0.4 units of RNasin (Promega), 1.0 mM DTT, 6.25 μl HeLa nuclear extract, and water up to 12.5 μl (all concentrations are final) was added and incubation continued at 30° C. for the indicated time. Where indicated, theophylline was substituted by caffeine or water. Splicing reaction was terminated by the addition of 125 μl stop buffer (100 mM Tris-HCl, pH 7.5, 10 mM EDTA, 1% SDS, 150 mM NaCl, 300 mM sodium acetate) followed by phenol-chloroform extraction and isolation of the RNA by ethanol precipitation.

AdML BPT15AG pre-mRNA = test: Spliceosome assembly assay with AdML BPT15AG pre-mRNA; format: biochemical; conditions: 2 mM theophylline
Description: Spliceosome assembly assays were performed in the presence or absence of 2 mM theophylline.
Spliceosome assembly and separation of individual complexes were performed essentially as described earlier (Das and Reed, 1999). Briefly, pre-mRNA (˜5 ng) was incubated in HeLa nuclear extract in the absence or presence of theophylline (12.5 μl total volume) under the conditions that support in vitro splicing. After the incubation, 2.5 μl of 4 μg/μl heparin and 2.5 μl of 5× loading dye containing 1×TBE (89 mM Tris, 89 mM boric acid, 2.5 mM EDTA), 20% glycerol, 0.25% bromophenol blue, 0.25% xylene cyanol) was added and the 3 μl aliquots of each reaction mixture were loaded on a 2% horizontal low-melting agarose gels followed by the spliceosome complexes at 70 V for 3 h in Tris-glycine running buffer at room temperature (Konarska and Sharp, 1986). Gels were fixed in 10% acetic acid, 10% methanol for 30 min, and then dried under vacuum at 80° C.

AdML-Theo+10 pre-mRNA = test: In vitro splicing of AdML-Theo+10 pre-mRNA; format: biochemical; conditions: aptamer 10 nucleotides downstream of the 5′ splice site; data not shown
Description: To test this hypothesis, we decided to synthesize an AdML pre-mRNA derivative, termed AdML-TheoExon 2, in which the theophylline-binding site was moved eight nucleotides downstream of the 3′ ss (FIG. 6). […] Thus, only the functionally important elements of pre-mRNA could be the target of theophylline-dependent control of pre-mRNA splicing.
as §1, with “Splicing reaction was terminated by the addition of 125 μl stop buffer (100 mM Tris-HCl, pH 7.5, 10 mM EDTA, 1% SDS, 150 mM NaCl, 300 mM sodium acetate) followed by phenol-chloroform extraction and isolation of the RNA by ethanol precipitation.” left out

For `Cn1c(=O)c2[nH]cnc2n(C)c1=O` [theophylline], the “splicing of AdML-Theo29AG-EGFP pre-mRNA by RT-PCR” value ([1]; HEK293) was “repressed the splicing”, the “GFP expression of cells transfected with control plasmid pEGFP-N1” value ([1]; HEK293, control plasmid) was “virtually no effect” and the “GFP expression of cells transfected with pAdML-Theo29AG-EGFP” value ([1]; HEK293, theophylline, up to 48 hours) was “dose dependent decrease in GFP expression”. The “theophylline concentration sufficient to inhibit pre-mRNA splicing (FIG. 11)” value ([1]; living cells) was 0.1 to 0.5 mM, the “distal to proximal product ratio of Bcl-x minigene derivatives” value [2] was “increased” and the “effect on spliceosome assembly” value (AdML BPT15AG pre-mRNA) was “blocking assembly of the spliceosome”. For the same compound, the “effect on splicing of AdML-Theo+10 pre-mRNA” value (AdML-Theo+10 pre-mRNA) was “remained unaltered”.
